The subject of series [1] is Phosphorylation of ERK1/2 in MIA PaCa-2 (G12C) cells. The series can be described thus: Phospho-ERK1/2 MSD Assay. It is filed as cell-based. To be noted: Homo sapiens; 2 h compound treatment, MIA PaCa-2 cells; read-out: basal p-ERK 2 h MIA PaCa-2 (G12C) IC50 IP. Here is the method: Phospho-ERK1/2 MSD Assay: MIA PaCa-2 (ATCC® CRL-1420™) cells were cultured in RPMI 1640 Medium (ThermoFisher Scientific 11875093) containing 1% fetal bovine serum (ThermoFisher Scientific 16000044) and 1× penicillin-streptomycin-glutamine (ThermoFisher Scientific 10378016). Sixteen hours prior to compound treatment, MIA PaCa-2 cells were seeded in 96-well cell culture plates at a density of 25,000 cells/well and incubated at 37° C., 5% C02. A compound dose-response titration was diluted in growth media, added to appropriate wells of a cell culture plate, and then incubated at 37° C., 5% C02 for 2 or 4 hours (see Table 15). Following compound treatment, cells were washed with ice-cold Dulbecco's phosphate-buffered saline, no Ca^2+or Mg^2+(ThermoFisher Scientific 14190144), and then lysed in RIPA buffer (50 mM Tris-HCl pH 7.5, 1% Igepal, 0.5% sodium deoxycholate, 150 mM NaCl, and 0.5% sodium dodecyl sulfate) containing protease inhibitors (Roche 4693132001) and phosphatase inhibitors (Roche 4906837001). Phosphorylation of ERK1/2 in compound-treated lysates was assayed using Phospho-ERK1/2 Whole Cell Lysate kits (Meso Scale Discovery K151DWD) according to the manufacturer's protocol. Assay plates were read on a Meso Scale Discovery Sector Imager 6000, and data were analyzed using a 4-parameter logistic model to calculate IC50 values.

In series [2] the target is GDP-bound KRAS protein (aa 1-169) G12D/C118A (Homo sapiens (Human), UniProt P01116, C118A/G12D). The series can be described thus: Coupled Nucleotide Exchange Assay (KRAS G12D). The following applies: 20 h compound pre-incubation; read-out: GDP KRAS G12D 20 h Coupled Exchange IC50 IP. It is filed as biochemical. Here is the method:
(§1) Coupled Nucleotide Exchange Assay: Purified GDP-bound KRAS protein (aa 1-169), containing either G12C or G12D, as well as C118A amino acid substitutions and an N-terminal His-tag, was pre-incubated in assay buffer (25 mM HEPES pH 7.4, 10 mM MgCl2, and 0.01% Triton X-100) with a compound dose-response titration for either 5 min or 20 hours (see Table 15). Following compound pre-incubation, purified SOS protein (aa 564-1049) and GTP (Roche 10106399001) were added to the assay wells and incubated for an additional 30 min. To determine the extent of inhibition of SOS-mediated nucleotide exchange, purified GST-tagged cRAF (aa 1-149), nickel chelate AlphaLISA acceptor beads (PerkinElmer AL108R), and AlphaScreen glutathione donor beads (PerkinElmer 6765302) were added to the assay wells and incubated for 10 minutes. The assay plates were then read on a PerkinElmer EnVision Multilabel Reader, using AlphaScreen® technology, and data were analyzed using a 4-parameter logistic model to calculate IC50 values.

The target in series [3] is GDP-bound KRAS protein (aa 1-169) G12C/C118A (Homo sapiens (Human), UniProt P01116, C118A/G12C). As to the kind of experiment: Coupled Nucleotide Exchange Assay (KRAS G12C). Format: biochemical. As for the experimental part:
as §1

The target of the next series is GDP-KRAS G12D (Homo sapiens, UniProt P01116, C118A/G12D). As to the kind of experiment: GDP-KRAS G12D RF-MS Assay. It is filed as binding. To be noted: 100 μM inhibitor, 20 h incubation, 2 uM KRAS G12D. As for the experimental part: GDP-KRAS G12D RF-MS Assay: MS assays were performed in the following buffer: 25 mM HEPES pH 7.4, 20 mM MgCl2, 10 mM NaCl, 3% DMSO, 0.0005% CHAPS with 100 μM GDP made fresh and added to the assay buffer. The final concentration of KRAS G12D was 2 uM. Assay incubation times were 20 h and the inhibitor concentration was 100 μM. Greiner polypropylene clear V-bottom plates were used for the mass spectrometry assays. Typically, the reaction was initiated by addition of KRAS G12D to a well containing inhibitor followed by Rapidfire MS analysis. Relative % Bound values at the various incubation times were used to estimate a kobs value at 100 uM inhibitor.
RapidFire Sample Liquid handling System: The RapidFire liquid handling unit used was the RF 360 model. Solvents were delivered by Agilent 1260 Infinity pumps. The instrument control software was the Agilent RapidFire High Throughput MS-system software (v4.0.12333.14274). A single C4 Type A (Agilent technologies, G9203) SPE-cartridge was used for these experiments. A volume of 10 μL (sample loop determined) was removed from each well of a 384-well plate by using an aspiration time of 300 ms. The sample load/wash time was 6000 ms at a flow rate of 1.25 mL/min (H2O, 0.1% v/v formic acid, 0.05% v/v trifluoroacetic acid); elution time was 7000 ms (acetonitrile, 0.1% v/v formic acid, 0.05% v/v trifluoroacetic acid); re-equilibration time was 700 ms at a flow rate of 1.25 mL/min (H2O, 0.1% v/v formic acid, 0.05% v/v trifluoroacetic acid).
Mass Spectrometry: Mass spectrometric data was acquired on an Agilent 6530 quadrupole time-of-flight (ToF) MS system, operated with a dual Agilent Jet Spray (AJS) ion source, in positive ionization mode. The instrument parameters were as follows: gas temperature 350° C.; drying gas 5 L/min; nebulizer 60 psi; sheath gas 350° C.; sheath gas flow 11 L/min; capillary 3.5 kV (0.037 μA); nozzle 1.75 kV; fragmentor 200 V; skimmer 75 V; octapole RF 800 V peak-to-peak. Data was acquired at the rate of 5 spectra/s. The mass scale was calibrated using the Agilent positive ion tune mix, over the m/z range 300-3200. The instrument control software was Agilent MassHunter Workstation Data Acquisition (vB.05.01).
Mass Spectrometry Data Processing and Informatics: All data processing was performed using a HP Z620, 64-bit, 12-processor, Windows 7 PC, using a combination of Agilent MassHunter Qualitative Analysis (B.05.00) Agilent RapidFire control software (v4.0.12333.14070) and the Agilent DA Reprocessor Offline Utilities B.05.00, Build 162. The SPE-MS data acquired from the RapidFire-MS system is typically a single SPE-MS data file composed of multiple injection events. For effective charge state extraction, SPE-peak integration and subsequent MS-spectral deconvolution, the single SPE-MS data file is split into single injection events. This is typically performed off-line and achieved through the RapidFire User Interface software, using the Agilent RapidFire control software (v4.0.12333.14070) using the Convert MS Data option. Once the individual injection-event MS-data files have been produced, they are all batch processed using the DA Reprocessor Offline Utilities (B.05.00, Build 162, Agilent). For batch processing a method file was created using Agilent MassHunter Qualitative Analysis B.05.00. The details of this method file are contained within the BioConfirm Workflow and are as follows: Integrate (MS), Integrator Selection: General, smooth option selected; detector point sampling 1; start threshold 5.0; stop threshold 0.0; filtering 5 point; peak location, top. Extract (MS): Peak Spectrum Extraction (MS) within m/z 800-1400. Deconvolute (MS) Maximum Entropy: mass range 19,000-21,000 Daltons; Mass step 1.0 Da; S/N threshold 20.0; Use limited m/z range 800-1400; adduct proton; isotope peak width automatic; minimum consecutive charge states 5. […]

Setting [4] is: 5 min compound pre-incubation, read-out: GDP KRAS G12C 5 min Coupled Exchange IC50 IP.
[5] abbreviates: 20 h compound pre-incubation, read-out: GDP KRAS G12C 20 h Coupled Exchange IC50 IP.

The structures appear in SMILES notation. Like-named read-outs stand apart in the source and are kept apart here.

Chain of GDP-bound KRAS protein (aa 1-169) G12C/C118A (P01116 other isoform, or with tags, fused parts or gaps G12C/C118A): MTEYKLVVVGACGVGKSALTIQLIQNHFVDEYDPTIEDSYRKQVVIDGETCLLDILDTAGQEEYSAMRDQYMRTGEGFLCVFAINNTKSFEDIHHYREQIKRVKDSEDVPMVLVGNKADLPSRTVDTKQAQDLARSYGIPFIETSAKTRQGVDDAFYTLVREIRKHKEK
Chain of GDP-bound KRAS protein (aa 1-169) G12D/C118A (P01116 other isoform, or with tags, fused parts or gaps G12D/C118A): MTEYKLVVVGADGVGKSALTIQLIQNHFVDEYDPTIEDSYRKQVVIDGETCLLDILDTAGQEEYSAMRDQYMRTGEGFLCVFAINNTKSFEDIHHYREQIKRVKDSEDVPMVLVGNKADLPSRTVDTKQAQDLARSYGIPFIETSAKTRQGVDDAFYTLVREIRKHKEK

For the compound `Cc1ccnc(C(C)C)c1-n1c(=O)nc(N2CCN(C(=O)C=O)C[C@@H]2C)c2cc(Cl)c(-c3ccccc3F)nc21` [Example 4, (S)-2-(4-(6-chloro-7-(2-fluorophenyl)-1-(2-isopropyl-4-methylpyridin-3-yl)-2-oxo-1,2-dihydropyrido[2,3-d]pyrimidin-4-yl)-3-methylpiperazin-1-yl)-2-oxoacetaldehyde], the IC50 in series [1] is 0.711 µM.

Regarding `CCOC(=O)[C@@H]1O[C@H]1C(=O)N1CCN(c2nc(=O)n(-c3c(C)ccnc3C(C)C)c3nc(-c4ccccc4F)c(Cl)cc23)[C@@H](C)C1` [Example 19, Ethyl (2R,3R)-3-((S)-4-(6-chloro-7-(2-fluorophenyl)-1-(2-isopropyl-4-methylpyridin-3-yl)-2-oxo-1,2-dihydropyrido[2,3-d]pyrimidin-4-yl)-3-methylpiperazine-1-carbonyl)oxirane-2-carboxylate], the IC50 in series [2] is over 250 µM; in series [1] it was 0.096 µM; in series [3] (setting [4]) it was 0.216 µM; in series [3] (setting [5]) it was 0.005 µM. In addition, the “GDP-KRAS G12D RF-MS 100 μM 20 h Relative % Bound” value at GDP-KRAS G12D was found to be 3.4%.

Turning to `COC(=O)/C=C/C(=O)N1CCN(c2nc(=O)n(-c3c(C)ccnc3C(C)C)c3nc(-c4ccccc4F)c(Cl)cc23)[C@@H](C)C1` [Example 5, Methyl (S,E)-4-(4-(6-chloro-7-(2-fluorophenyl)-1-(2-isopropyl-4-methylpyridin-3-yl)-2-oxo-1,2-dihydropyrido[2,3-d]pyrimidin-4-yl)-3-methylpiperazin-1-yl)-4-oxobut-2-enoate], the IC50 in series [2] was over 250 µM; in series [1], 0.061 µM; in series [3] (setting [4]), 0.095 µM; in series [3] (setting [5]), 0.026 µM.

For `Cc1ccnc(C(C)C)c1-n1c(=O)nc(N2CC[C@H](NC(=O)C3CO3)C2)c2cc(Cl)c(-c3ccccc3F)nc21` (stereo partly drawn) [Example 35, N—((S)-1-(6-chloro-7-(2-fluorophenyl)-1-(2-isopropyl-4-methylpyridin-3-yl)-2-oxo-1,2-dihydropyrido[2,3-d]pyrimidin-4-yl)pyrrolidin-3-yl)oxirane-2-carboxamide], the half-inhibitory concentration (IC50) was over 250 µM in series [2], 167 µM in series [3] (setting [4]) and 1.36 µM in series [3] (setting [5]). Further, the “GDP-KRAS G12D RF-MS 100 μM 20 h Relative % Bound” value at GDP-KRAS G12D is given as 3.4%.

What is called IC50 is the concentration that inhibits the measured activity by half.
